Results published in paper PMC11943723, “Synthesis and Biological Activity of Glycosyl Thiazolyl Disulfides Based on Thiacarpine, an Analogue of the Cytotoxic Alkaloid Polycarpine from the Ascidian Polycarpa aurata” (Marine Drugs, 2025).
≈ marks a conversion by molar mass, not a printed value. Where two headings read alike, the source gives them in different places.

Key:
[1] = tested on: HeLa (cervical cancer); test: MTT cell viability assay, HeLa; type: cell-based, human; details: 24 h incubation, read-out: Cytotoxicity EC50, HeLa
Source text: (§1) Human erythrocytes were purchased from the blood transfusion station Vladivostok. Human breast cancer cell lines MCF-7^HTB−22, and MDA-MB-231^CRM-HTB−26, liver hepatocellular carcinoma Hep G2^HB−8065, prostate adenocarcinoma PC-3^CRL−1435, cervical adenocarcinoma HeLa^CRM-CCL−2, and normal bronchial epithelial cells BEAS-2B ^CRL−3588 were received from ATCC (Manassas, VA, USA).
(§2) DMEM medium (Biolot, Russia) with 1% penicillin/streptomycin and 10% fetal bovine serum (FBS) (Biolot, Russia) was used for cultivation of Hep G2, PC-3, HeLa, and Beas-2b. MEM medium (Biolot, Russia) with 1% penicillin/streptomycin sulfate (Biolot, Russia) and FBS (Biolot, Russia) to a final concentration of 10% for MCF-7 and MDA-MB-231 cells.
(§3) The effect of the studied compounds on the viability of human cancer and normal cells was determined using the MTT (3-[4,5-dimethylthiazol-2-yl]-2,5 diphenyl tetrazolium bromide) assay. Briefly, 6 × 10^3 cells per well were seeded into 96-well plates and incubated for 24 h for adhesion, followed by incubation for 24 h with different concentrations of the substances. After incubation, the medium containing the test substances was replaced with 100 µL of fresh medium. Then, 10 μL of MTT (Sigma-Aldrich, Madison, WI, USA) reagent (5 mg/mL MTT in PBS) was added into the cells and the plates for additional 4 h. Thereafter, 100 µL of SDS-HCl solution (1 g SDS/10 mL dH2O/17 µL 6N HCl) was added to each well and incubated for 18 h. The absorbance of the converted formazan dye was measured using a Multiskan FC microplate photometer (Thermo Scientific, Waltham, MA, USA) at a wavelength of 570 nm. All experiments were performed in triplicate. Cytotoxic activity was expressed as a percentage of the cell viability.

[2] = tested on: LLC; details: injected intraperitoneally; cited from earlier work
[3] = tested on: Hep G2 (hepatocellular carcinoma); test: MTT cell viability assay, Hep G2; type: cell-based; details: Homo sapiens, HepG2, 24 h incubation, read-out: Cytotoxicity EC50, Hep G2
Source text: as §1, §2, §3

[4] = tested on: MDA-MB-231 (triple-negative breast cancer); test: MTT cell viability assay, MDA-MB-231; type: cell-based, human; details: 24 h incubation, read-out: Cytotoxicity EC50, MDA-MB-231 (TNBC)
Source text: as §1, §2, §3

[5] = tested on: melanoma B-16; details: injected intraperitoneally; cited from earlier work
[6] = tested on: Staphylococcus aureus (ATCC 21027); test: Antimicrobial activity, inhibition of microbial growth (optical density); type: cell-based; details: Staphylococcus aureus, ATCC21027; 18 h, OD 620 nm; read-out: Inhibition of Microbial Growth MIC50, S. aureus
Protocol: (§4) The antimicrobial activity of the compounds was determined against Gram-positive bacteria Staphylococcus aureus (ATCC 21027), Gram-negative bacteria Escherichia coli (VKPM B-7935), and yeast-like fungi Candida albicans (KMM 455) (all test strains were obtained from the Collection of Marine Microorganisms KMM PIBOC FEB RAS) in liquid nutrient media. Test cultures of S. aureus, E. coli, and C. albicans were grown in Petri dishes on a solid nutrient medium (Mueller–Hinton broth with the addition of agar—16.0 g/L) at 37 °C for 24 h. The antimicrobial activity of the compounds was determined by the change in optical density and expressed as the percentage of bacterial inhibition at different concentrations of substances added to the well of the microorganism suspension, compared to the control. The compounds were dissolved in dimethyl sulfoxide (DMSO) at a concentration of 10 mM and stored at −20 °C. Before the experiment, the solution of substances in DMSO was diluted with PBS at a concentration of 0.5–100.0 µM and added to the wells so that the concentration of DMSO in the culture medium was less than 1%. Antimicrobial activity was determined in 96-well microplates in a liquid Mueller–Hinton nutrient medium. For S. aureus, E. coli, and C. albicans, a bacterial suspension of 10^6 CFU in 1 mL of the media was used, 90 μL was added to each well of the microplates and then incubated in a thermostatted shaker at 37 °C for 18 h. Inhibition of microorganism growth was assessed by measuring the optical density at 620 nm using a microplate reader (Thermo Fisher Scientific, Waltham, MA, USA) after preliminary shaking of the plates for 10 min. All experiments were performed in triplicate. Gentamicin (S. aureus and E. coli) and nitrofungin (C. albicans) were used as positive controls, and 1% DMSO in PBS was used as a negative control.

[7] = tested on: Escherichia coli (VKPM B-7935); test: as above; type: cell-based; details: Escherichia coli; 18 h, OD 620 nm; read-out: Inhibition of Microbial Growth MIC50, E. coli
Protocol: as §4

[8] = tested on: Candida albicans (KMM 455); test: as above; type: cell-based; details: Candida albicans, KMM455; 18 h, OD 620 nm; read-out: Inhibition of Microbial Growth MIC50, C. albicans
Protocol: as §4

[9] = MTT cell viability assay, BEAS-2B normal cells; type: cell-based; details: human, BEAS-2B normal bronchial epithelial cells, 24 h incubation, read-out: Cytotoxicity EC50, BEAS 2B
Source text: as §1, §2, §3

[10] = tested on: HeLa cells; test: Colony formation (clonogenic) assay; type: cell-based; details: Homo sapiens, 336 h, 10 µM, 14 days
Protocol: The effect of the test compounds on HeLa cell proliferation was analyzed using a clonogenic assay. Briefly, HeLa cells were cultured in 6-well plates at a density of 1 × 10^2 cells per well, and compounds were added at concentrations of 5 or 10 μM. Untreated culture medium was used as a control. […] Before fixation and staining, the medium was removed and the cells were washed twice with PBS. The colonies were then fixed with methanol for 25 min and stained with 0.5% crystal violet for 25 min at room temperature. The plates were then washed with water and air-dried.

[11] = tested on: Human erythrocytes; test: Hemolytic activity (destruction of erythrocyte membranes); type: cell-based
Source text: as §1

[12] = tested on: Staphylococcus aureus (ATCC 21027); test: Inhibition of biofilm formation (MTT); type: cell-based; details: 24 h
Protocol: (§5) Biofilm formation was performed according to the method described by Walencka et al., with minor modifications. The compounds were dissolved in dimethyl sulfoxide (DMSO) at a concentration of 10 mM and stored at −20 °C. Before the experiment, the solution of substances in DMSO was diluted with PBS at a concentration of 0.5–100.0 µM and added to the wells so that the concentration of DMSO in the culture medium was less than 1%. Biofilm formation was assessed in 96-well microplates in a liquid Mueller–Hinton nutrient medium. For S. aureus, E. coli, and C. albicans, a bacterial suspension of 10^6 CFU in 1 mL of medium was used, 90 μL was added to each well of the microplates and then incubated in a thermostatted shaker at 37 °C for 24 h. After incubation, the suspension of planktonic microorganisms was removed from the plate and washed with PBS. Next, 100 μL of PBS and 10 μL of MTT (3-(4,5-dimethylthiazol-2-yl)-2,5-diphenyltetrazolium bromide, MTT reagent, Sigma) stock solution (5 mg/mL) were added to the wells and incubated for 3 h at 37 °C. After incubation, all the solution was removed from the wells, 100 μL of DMSO was added, and the plate was shaken for 10 min until all formazan crystals had dissolved. The absorption was measured using a plate reader (Thermo Fisher Scientific, Waltham, MA, USA) at a wavelength of 570 nm. The activity of the substances was assessed by the change in optical density compared with that of the control. All experiments were performed in triplicate. Gentamicin (S. aureus and E. coli) and nitrofungin (C. albicans) were used as positive controls, and 1% DMSO in PBS was used as a negative control.

[13] = tested on: Escherichia coli (VKPM B-7935); test: Inhibition of biofilm formation (MTT); type: cell-based; details: 24 h
Protocol: as §5

[14] = tested on: HeLa cells; test: Wound scratch migration assay; type: cell-based; details: Homo sapiens, 24 h, read-out: Migration inhibition effect
Protocol: To analyze the effect of the tested compounds on the migration of HeLa tumor cells, special migration inserts (Culture-insert 2 Well 24, ibiTreat, Martinsried, Germany) were used, which left a gap of 500 ± 50 μm (according to the manufacturer’s data) between the cells attached to the plate. HeLa cells at a concentration of 5 × 10^5 were added to each well of the migration insert for 24 h, the insert was removed, and the cells were washed twice with PBS to remove cell debris and floating cells and loaded with the fluorescent probe CFDA-SE (Lumiprobe, Moscow, Russia) at a concentration of 10 µM for 5 min. The cells were treated with different concentrations of the studied compounds for 0 and 24 h. Cells treated with culture medium alone were used as vehicle controls. Cell migration in the wound area was observed under a fluorescence microscope (MIB-2-FL, LOMO, St. Petersburg, Russia) with a 10× objective.

[15] = tested on: Candida albicans (KMM 455); test: Inhibition of biofilm formation (MTT); type: cell-based; details: 24 h
Protocol: as §5

[16] = in vivo experiments; cited from earlier work

| SMILES | EC50 ([1]; Homo sapiens, HeLa, 24 h) [µM] | Inhibition of development of solid tumor LLC [2] | EC50 [3] [µM] | EC50 ([4]; Homo sapiens, MDA-MB-231, 24 h) [µM] | Inhibition of development of solid tumor melanoma B-16 [5] | MIC50 [6] [µM] | MIC50 [7] [µM] | MIC50 [8] [µM] | EC50 at 24 h [9] [µM] | inhibition at 10 µM [10] [%] | Hemolytic activity, erythrocytes [11] [µM] | Inhibition of Biofilm Formation MIC50, S. aureus [12] [µM] | Inhibition of Biofilm Formation MIC50, E. coli [13] [µM] | EC50 [1] [µM] | inhibition at 10 µM [14] [%] | EC50 [4] [µM] | Inhibition of Biofilm Formation MIC50, C. albicans [15] [µM] | Acute toxicity in vivo [16] |
| --- | --- | --- | --- | --- | --- | --- | --- | --- | --- | --- | --- | --- | --- | --- | --- | --- | --- | --- |
| COc1ccc(-c2nc(N)sc2SSc2sc(N)nc2-c2ccc(OC)cc2)cc1 [Compound 1a] | > 25 | effectively inhibited | > 25 | 21.4 | effectively inhibited | 10.3 ± 1.1 (≈ 4.89 µg/mL) | > 50 | 38.2 ± 3.2 (≈ 18.1 µg/mL) | > 25 |  |  |  |  |  |  |  |  |  |
| CC(=O)OC[C@H]1O[C@@H](SSc2sc(N)nc2-c2ccc(Br)cc2)[C@H](OC(C)=O)[C@@H](OC(C)=O)[C@@H]1OC(C)=O [Compound 4c, 5-[(2,3,4,6-Tetra-O-acetyl-β-D-glucopyranosyl)disulfanyl]-2-amino-4-(4-bromophenyl)thiazole] | 19.4 |  | 24.3 | 21.7 |  | 2.3 ± 0.3 (≈ 1.49 µg/mL) | 6.9 ± 0.5 (≈ 4.48 µg/mL) | 7.1 ± 0.7 (≈ 4.61 µg/mL) | 15.5 | 76 | > 25 | 7.94 | 8.04 |  |  |  |  |  |
| CC(=O)OC[C@H]1O[C@@H](SSc2sc(N)nc2-c2ccc(C)cc2)[C@H](OC(C)=O)[C@@H](OC(C)=O)[C@@H]1OC(C)=O [Compound 4e, 5-[(2,3,4,6-Tetra-O-acetyl-β-D-glucopyranosyl)disulfanyl]-2-amino-4-(p-tolyl)thiazole] | 18.5 |  | > 25 | 15 |  | > 50 | > 50 | 17.7 ± 0.3 (≈ 10.3 µg/mL) | > 25 |  |  |  |  | 18.5 | ~43 | 15 |  |  |
| CC(=O)O[C@@H]1[C@@H](OC(C)=O)[C@H](SSc2sc(N)nc2-c2ccc(Br)cc2)OC[C@H]1OC(C)=O [Compound 4h, 5-[(2,3,4-Tri-O-acetyl-β-D-xylopyranosyl)disulfanyl]-2-amino-4-(4-bromophenyl)thiazole] | 21.3 |  | 24.6 | 21.1 |  | 2.4 ± 0.2 (≈ 1.39 µg/mL) | 5.8 ± 0.4 (≈ 3.35 µg/mL) | 4.3 ± 0.5 (≈ 2.48 µg/mL) | 19.9 |  | > 25 | 6.32 |  |  | ~43 |  | 7.11 |  |
| CC(=O)O[C@@H]1[C@@H](OC(C)=O)[C@H](SSc2sc(N)nc2-c2ccc(Cl)cc2)OC[C@H]1OC(C)=O [Compound 4i, 5-[(2,3,4-Tri-O-acetyl-β-D-xylopyranosyl)disulfanyl]-2-amino-4-(4-chlorophenyl)thiazole] | > 25 |  | > 25 | > 25 |  | 3.1 ± 0.3 (≈ 1.65 µg/mL) | 8.7 ± 0.9 (≈ 4.64 µg/mL) | 2.8 ± 0.3 (≈ 1.49 µg/mL) | > 25 |  | > 25 | 6.25 |  |  |  |  | 4.08 |  |
| COc1ccc(-c2nc(N)n(C)c2SSc2c(-c3ccc(OC)cc3)nc(N)n2C)cc1 [polycarpine] |  |  |  |  |  |  |  |  |  |  |  |  |  |  |  |  |  | acute toxicity |
